Columns and labels:
[1] = biological target: T1, human TLR7 (Homo sapiens, UniProt Q9NYK1); test: Human TLR7 assay (SEAP reporter in HEK293 cells); type: cell-based; conditions: HEK293 cells expressing recombinant human TLR7, overnight incubation at 37° C., 0.1% DMSO; read-out: mean pEC50 (SEAP induction) (converted)
T1 construct: expressed in transfected cells; host or cells: HEK293 stably expressing pNiFty2-SEAP reporter; TLR7 in pUNO vector
T1 sequence (Q9NYK1 27-1049): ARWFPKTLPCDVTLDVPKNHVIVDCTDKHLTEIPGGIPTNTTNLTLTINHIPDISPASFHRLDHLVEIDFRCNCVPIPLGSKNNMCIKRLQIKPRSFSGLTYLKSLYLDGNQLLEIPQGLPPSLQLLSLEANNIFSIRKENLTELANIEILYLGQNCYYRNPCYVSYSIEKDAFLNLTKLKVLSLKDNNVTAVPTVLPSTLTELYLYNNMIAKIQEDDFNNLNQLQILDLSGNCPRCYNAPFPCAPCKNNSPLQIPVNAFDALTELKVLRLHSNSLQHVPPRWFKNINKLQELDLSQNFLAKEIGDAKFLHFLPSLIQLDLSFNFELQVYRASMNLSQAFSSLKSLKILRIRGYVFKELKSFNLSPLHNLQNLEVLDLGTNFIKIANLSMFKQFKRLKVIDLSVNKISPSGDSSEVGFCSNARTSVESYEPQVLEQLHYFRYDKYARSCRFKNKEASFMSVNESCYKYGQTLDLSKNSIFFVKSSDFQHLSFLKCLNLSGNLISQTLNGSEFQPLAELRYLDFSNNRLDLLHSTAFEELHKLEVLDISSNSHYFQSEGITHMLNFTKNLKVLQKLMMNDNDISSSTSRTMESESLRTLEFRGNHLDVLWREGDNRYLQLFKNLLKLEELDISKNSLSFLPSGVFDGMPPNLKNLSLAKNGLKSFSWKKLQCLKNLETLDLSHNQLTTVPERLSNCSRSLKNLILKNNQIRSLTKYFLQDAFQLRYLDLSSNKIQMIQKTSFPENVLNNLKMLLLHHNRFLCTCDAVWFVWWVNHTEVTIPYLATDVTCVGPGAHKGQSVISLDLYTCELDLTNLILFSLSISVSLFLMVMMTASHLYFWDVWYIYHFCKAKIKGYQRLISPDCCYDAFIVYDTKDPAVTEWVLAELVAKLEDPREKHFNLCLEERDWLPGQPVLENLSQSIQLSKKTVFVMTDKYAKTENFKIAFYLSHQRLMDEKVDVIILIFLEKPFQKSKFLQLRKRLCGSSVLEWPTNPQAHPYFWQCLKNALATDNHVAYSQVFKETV
Excerpt: Recombinant human TLR7 was stably expressed in a HEK293 cell line already stably expressing the pNiFty2-SEAP reporter plasmid; integration of the reporter gene was maintained by selection with the antibiotic zeocin. The most common variant sequence of human TLR7 (represented by the EMBL sequence AF240467) was cloned into the mammalian cell expression vector pUNO and transfected into this reporter cell-line. Transfectants with stable expression were selected using the antibiotic blasticidin. In this reporter cell-line, expression of secreted alkaline phosphatase (SEAP) is controlled by an NFkB/ELAM-1 composite promoter comprising five NFkB sites combined with the proximal ELAM-1 promoter. TLR signaling leads to the translocation of NFkB and activation of the promoter results in expression of the SEAP gene. TLR7-specific activation was assessed by determining the level of SEAP produced following overnight incubation of the cells at 37° C. with the standard compound in the presence of 0.1% (v/v) dimethylsulfoxide (DMSO). […] Human Skin Cytokine Production

[2] = biological target: T2, CYP1A2 (Homo sapiens, UniProt P05177); test: CYP inhibition; type: in vitro ADME; conditions: expressed in E. coli membranes, substrate phenacetin, LC-MS-MS; read-out: Mean pIC50 CYP1A2 (converted)
T2 construct: made in house; host or cells: E. coli (membranes)
T2 sequence (P05177 1-516): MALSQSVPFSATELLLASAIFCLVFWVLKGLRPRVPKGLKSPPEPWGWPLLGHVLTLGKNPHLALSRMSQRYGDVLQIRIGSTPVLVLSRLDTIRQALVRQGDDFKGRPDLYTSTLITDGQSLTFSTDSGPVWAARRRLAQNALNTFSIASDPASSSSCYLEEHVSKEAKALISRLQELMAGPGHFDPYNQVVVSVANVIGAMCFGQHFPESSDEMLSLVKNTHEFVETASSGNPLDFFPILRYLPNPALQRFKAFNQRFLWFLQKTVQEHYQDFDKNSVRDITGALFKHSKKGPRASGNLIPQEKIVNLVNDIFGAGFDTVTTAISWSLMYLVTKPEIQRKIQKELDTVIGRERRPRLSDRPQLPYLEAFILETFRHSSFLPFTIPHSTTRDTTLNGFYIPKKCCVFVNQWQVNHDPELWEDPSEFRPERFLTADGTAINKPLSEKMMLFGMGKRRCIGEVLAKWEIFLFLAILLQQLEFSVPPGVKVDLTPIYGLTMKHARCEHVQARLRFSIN
Protocol: (§1) The five major human hepatic Cytochrome P450 isoforms, 1A2, 2C9, 2C19, 2D6 and 3A4 were heterologously expressed in E. coli membranes. Each of the five CYPs were incubated with a cocktail of specific substrates; phenacetin, diclofenac, 5-mephenyloin, bufuralol and midazolam, which are predominantly metabolised by CYP 1A2, 2C9, 2C19, 2D6 and 3A4 respectively plus the test compound.
(§2) The substrates were incubated, at concentrations equivalent to their respective Km values, and LC-MS-MS (MRM mode) was used in order to follow the formation of their specific metabolites. The ability of the test compound to inhibit the CYP isoforms was determined by following any decrease in the amount of the specific metabolites formed at six different inhibitor concentrations.
(§3) The rates of reaction were calculated by measuring MS/MS area units and data analysis was performed by linearising the data using a pseudo Hill plot. The IC50 ie the concentration of the test compound that decreases the amount of metabolite formed by 50% was determined.

[3] = biological target: T3, CYP2C19 (Homo sapiens, UniProt P33261); test: CYP inhibition; type: in vitro ADME; conditions: expressed in E. coli membranes, substrate 5-mephenyloin, LC-MS-MS; read-out: Mean pIC50 CYP2C19 (converted)
T3 construct: made in house; host or cells: E. coli (membranes)
Protocol: as §1, §2, §3

[4] = biological target: T4, CYP2C9 (Homo sapiens, UniProt P11712); test: CYP inhibition; type: in vitro ADME; conditions: expressed in E. coli membranes, substrate diclofenac, LC-MS-MS; read-out: Mean pIC50 CYP2C9 (converted)
T4 construct: made in house; host or cells: E. coli (membranes)
Protocol: as §1, §2, §3

[5] = biological target: T5, CYP2D6 (Homo sapiens, UniProt P10635); test: CYP inhibition; type: in vitro ADME; conditions: expressed in E. coli membranes, substrate bufuralol, LC-MS-MS; read-out: Mean pIC50 CYP2D6 (converted)
T5 construct: made in house; host or cells: E. coli (membranes)
Protocol: as §1, §2, §3

[6] = biological target: T6, CYP3A4 (Homo sapiens, UniProt P08684); test: CYP inhibition; type: in vitro ADME; conditions: expressed in E. coli membranes, substrate midazolam, LC-MS-MS; read-out: Mean pIC50 CYP3A4 (converted)
T6 construct: made in house; host or cells: E. coli (membranes)
Protocol: as §1, §2, §3

[7] = Human plasma stability; type: in vitro ADME; conditions: 37° C.
Protocol: To determine the half life of the test compound in human plasma, incubations were performed at 37° C. in a shaking water bath. Compound (5 μl of 100 μM stock in MeCN) was spiked into 0.495 mL plasma to give final incubation concentration of 1 μM. Aliquots (50 μl) were withdrawn at various time points (typically 0, 20 & 40 sec, 1, 2, 3, 5 & 10 mins) and quenched into MeCN ([…]) followed by analysis for parent compound by LC-MS-MS (MRM mode). The half life was calculated from the decline of test compound peak area over time. • Example 1 (Compound (I)) gave a half life of 0.6 minutes (n=1). • Comparative Example 1 gave a half life of 0.2 minutes (n=1).

[8] = tested on: interleukin-13 (IL-13) production in human skin biopsies; test: Human skin cytokine production (PHA-induced IL-13 in skin biopsies); type: cell-based; conditions: PHA-stimulated human skin biopsies, 24 hours
Protocol: Normal human skin biopsies were obtained, with informed consent, from healthy patients undergoing surgical cosmetic procedures. 3 mm full thickness skin biopsies were taken using a biopsy punch. A hole was cut in a Transwell filter (pore size 0.4 μm) using a punch and the skin biopsy inserted in the hole. The filter containing the biopsy was placed in the well of a 24-well culture plate containing 1.25 ml of culture medium (RPMI containing 1% heat-inactivated human serum) with the epidermis facing upwards at the liquid-air interface. Culture plates containing the biopsies were incubated at 37° C., in an atmosphere of 5% CO2 in air, for 24 hours. Biopsies were cultured in the absence or presence of phytohaemagglutinin (PHA) (1 mg/ml) added to the culture medium to induce a cytokine response in the tissue.

[9] = Maximal solubility in phosphate citrate buffer pH 3.0; type: physicochemical
[10] = compound applied topically at 1/10 max. solubility
[11] = compound applied topically at max. solubility

T6 sequence (P08684 whole entry): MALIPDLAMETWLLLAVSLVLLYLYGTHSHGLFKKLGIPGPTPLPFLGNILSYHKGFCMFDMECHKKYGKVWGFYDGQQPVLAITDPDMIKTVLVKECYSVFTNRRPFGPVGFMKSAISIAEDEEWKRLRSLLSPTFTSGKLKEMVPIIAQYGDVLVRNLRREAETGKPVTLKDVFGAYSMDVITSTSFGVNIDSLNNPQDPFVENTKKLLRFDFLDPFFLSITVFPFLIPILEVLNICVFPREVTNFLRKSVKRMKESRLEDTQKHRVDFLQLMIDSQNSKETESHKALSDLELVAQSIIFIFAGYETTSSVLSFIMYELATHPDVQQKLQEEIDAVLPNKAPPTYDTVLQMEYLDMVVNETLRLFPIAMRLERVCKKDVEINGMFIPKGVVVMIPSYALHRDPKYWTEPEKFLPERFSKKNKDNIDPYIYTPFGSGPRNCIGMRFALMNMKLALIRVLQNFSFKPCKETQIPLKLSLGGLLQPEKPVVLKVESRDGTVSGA
T4 sequence (P11712 whole entry): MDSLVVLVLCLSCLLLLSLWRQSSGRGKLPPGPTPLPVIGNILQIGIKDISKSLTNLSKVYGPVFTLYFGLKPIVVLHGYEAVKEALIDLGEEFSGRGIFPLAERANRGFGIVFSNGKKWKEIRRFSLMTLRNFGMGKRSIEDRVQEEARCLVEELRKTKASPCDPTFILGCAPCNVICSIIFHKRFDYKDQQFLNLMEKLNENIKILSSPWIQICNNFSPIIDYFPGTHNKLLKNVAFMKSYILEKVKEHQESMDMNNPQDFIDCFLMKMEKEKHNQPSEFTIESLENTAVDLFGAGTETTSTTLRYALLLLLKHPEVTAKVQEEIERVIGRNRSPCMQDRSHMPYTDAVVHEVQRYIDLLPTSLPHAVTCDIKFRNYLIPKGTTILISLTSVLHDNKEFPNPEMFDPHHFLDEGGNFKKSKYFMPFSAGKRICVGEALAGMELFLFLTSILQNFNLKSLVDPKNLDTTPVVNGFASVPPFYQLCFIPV
T3 sequence (P33261 whole entry): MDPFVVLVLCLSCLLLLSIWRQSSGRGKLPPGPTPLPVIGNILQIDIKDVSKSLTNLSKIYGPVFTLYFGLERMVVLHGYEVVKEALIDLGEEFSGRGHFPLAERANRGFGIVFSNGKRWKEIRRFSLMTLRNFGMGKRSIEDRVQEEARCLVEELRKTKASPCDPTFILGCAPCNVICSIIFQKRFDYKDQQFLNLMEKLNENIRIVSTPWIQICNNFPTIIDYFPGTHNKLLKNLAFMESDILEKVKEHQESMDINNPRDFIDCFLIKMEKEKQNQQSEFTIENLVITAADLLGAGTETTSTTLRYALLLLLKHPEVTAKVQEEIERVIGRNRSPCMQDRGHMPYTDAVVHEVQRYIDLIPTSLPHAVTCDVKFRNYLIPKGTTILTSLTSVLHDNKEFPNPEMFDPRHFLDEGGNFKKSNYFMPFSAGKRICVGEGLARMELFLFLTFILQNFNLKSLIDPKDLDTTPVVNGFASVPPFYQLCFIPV
T5 sequence (P10635 whole entry): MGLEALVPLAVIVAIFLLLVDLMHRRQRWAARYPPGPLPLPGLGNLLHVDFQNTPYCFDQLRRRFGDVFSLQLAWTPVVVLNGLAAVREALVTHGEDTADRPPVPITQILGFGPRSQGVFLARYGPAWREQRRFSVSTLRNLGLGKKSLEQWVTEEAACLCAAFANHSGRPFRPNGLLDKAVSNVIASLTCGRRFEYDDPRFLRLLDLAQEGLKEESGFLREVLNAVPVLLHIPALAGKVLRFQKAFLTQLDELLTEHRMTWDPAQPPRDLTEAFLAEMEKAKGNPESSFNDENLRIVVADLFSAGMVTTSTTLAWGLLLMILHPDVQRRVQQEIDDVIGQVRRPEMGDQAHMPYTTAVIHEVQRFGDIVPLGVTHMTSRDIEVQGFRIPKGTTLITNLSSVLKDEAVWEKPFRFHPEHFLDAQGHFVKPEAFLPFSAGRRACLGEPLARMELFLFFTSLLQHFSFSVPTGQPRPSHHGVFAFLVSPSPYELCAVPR

Row | SMILES | EC50 [1] | IC50 [2] | IC50 [3] | IC50 [4] | IC50 [5] | IC50 [6] | half-life at 1 μM [7] | % Inhibition of response [8, 10] | IL-13 (pg/ml) Mean ± SEM [8, 10] | % Inhibition of response [8, 11] | IL-13 (pg/ml) Mean ± SEM [8, 11] | maximal solubility in phosphate citrate buffer pH 3.0 [9]
1 | CCCCOc1nc(N)c2[nH]c(=O)n(CCCN(CCCN3CCCCC3)Cc3cccc(CC(=O)OC)c3)c2n1 [Comparative Example 1, Methyl [3-({[3-(6-amino-2-butoxy-8-oxo-7,8-dihydro-9H-purin-9-yl)propyl][3-(piperidin-1-yl)propyl]amino}methyl)phenyl]acetate, reference compound] | 158 nM | > 30.2 µM | > 30.2 µM | > 29.5 µM | 13.5 µM | 13.2 nM | 0.2 min |  |  |  |  | 
2 | CCCCOc1nc(N)c2[nH]c(=O)n(CCCN(CCCN3CCCCC3)Cc3ccc(CC(=O)OC)cc3)c2n1 [Example 1, Methyl [4-({[3-(6-amino-2-butoxy-8-oxo-7,8-dihydro-9H-purin-9-yl)propyl][3-(piperidin-1-yl)propyl]amino}methyl)phenyl]acetate] | 251 nM | > 3.02 µM | > 3.02 µM | > 3.02 µM | > 3.02 µM | 468 nM | 0.6 min | 55% | 4.8 ± 0.8 pg/mL | 87% | 1.9 ± 0.8 pg/mL | 4.1-4.4 % w/w

Reference: patent US8895570B2, “Purine derivatives” (AstraZeneca AB, priority 2010, dated 2014)
